Results as given in patent publication US20230144838A1, “THERANOSTIC SYSTEM FOR DIRECTED DIFFUSION OF THERAPEUTIC AND IMAGING AGENTS TO CANCER CELLS” (UNIVERSITAT POLITÈCNICA DE VALÈNCIA, priority 2019, published 2023).

Tested on: LNCaP (with membrane receptors FOLH1)
Assay: In vitro cytotoxic activity by MTT assay, LNCaP cells
Assay type: cell-based
Details: LNCaP human prostate adenocarcinoma cells, 72 hours, DTX equivalent concentration, n = 3, read-out: IC50 (mean ± SD)
Procedure: The in vitro cytotoxic activity of the theranostic system was determined by the 3-[4,5-dimethylthiazol-2-yl]-2,5-diphenyltetrazolium (MTT) bromide test. In these assays, the proliferation of living cells is determined via mitochondrial dehydrogenase activity: viable mitochondria reduce MTT by generating MTT-formazan crystals that are quantifiable by visible spectrophotometry.
Two types of human prostate adenocarcinoma cell lines were used for these assays: LNCaP (with membrane receptors FOLH1, PROTEIN DATA BANK ID FOLH1: 1Z8L) and PC3 (without FOLH1 receptors).
The cells are seeded in 96-well plates at a rate of 10,000 cells/well in both cases, 24 h before incorporating the nanoparticles. Aliquots of 3 mg ml-^1 of DTX in DMSO are prepared and kept at −20° C. When required, an aliquot is thawed, and working aliquots (100 μg/ml by dilution in enriched RPMI medium) are prepared. Alternatively, aliquots of 100 μg/mL DTX are prepared in enriched RPMI medium and kept at −20° C. until required. […]
At the end of the incubation period, 10 μl (5 mg/ml) of the MTT solution are added to each well and 4 hours later the formazan crystals are dissolved with isopropanol, and the absorbance at 570 nm is measured. The percentage of cell survival relative to untreated cells is determined and the values of IC50 from the curve DTX concentration-(%) live cells are calculated.

## CC(=O)O[C@@]12CO[C@@H]1C[C@H](O)[C@@]1(C)C(=O)[C@H](O)C3=C(C)[C@@H](OC(=O)[C@H](O)[C@@H](NC(=O)OC(C)(C)C)c4ccccc4)C[C@@](O)([C@@H](OC(=O)c4ccccc4)[C@H]21)C3(C)C [DTX, docetaxel]
  IC50: 0.8 ± 0.2 µg/mL
